Reference: US20250051347A1, “BIFUNCTIONAL CHIMERIC HETEROCYCLIC COMPOUND AND USE THEREOF AS ANDROGEN RECEPTOR DEGRADER” (Hinova Pharmaceuticals, Inc., priority 2021, published 2025)

These molecules were tested against T1, androgen receptor (AR) splicing variant AR-v7 (Homo sapiens, UniProt P10275) (assay: Degradation activity on androgen receptor splicing variant AR-v7 in 22RV1 cells (ELISA)). Conditions: AR-v7 degradation in 22RV1 cells, 48 h, class symbols.
T1 construct: The degradation activity of compounds on AR-v7 in 22RV1 cells; host or cells: 22RV1 cells
T1 sequence (P10275 1-644 isoform P10275-3): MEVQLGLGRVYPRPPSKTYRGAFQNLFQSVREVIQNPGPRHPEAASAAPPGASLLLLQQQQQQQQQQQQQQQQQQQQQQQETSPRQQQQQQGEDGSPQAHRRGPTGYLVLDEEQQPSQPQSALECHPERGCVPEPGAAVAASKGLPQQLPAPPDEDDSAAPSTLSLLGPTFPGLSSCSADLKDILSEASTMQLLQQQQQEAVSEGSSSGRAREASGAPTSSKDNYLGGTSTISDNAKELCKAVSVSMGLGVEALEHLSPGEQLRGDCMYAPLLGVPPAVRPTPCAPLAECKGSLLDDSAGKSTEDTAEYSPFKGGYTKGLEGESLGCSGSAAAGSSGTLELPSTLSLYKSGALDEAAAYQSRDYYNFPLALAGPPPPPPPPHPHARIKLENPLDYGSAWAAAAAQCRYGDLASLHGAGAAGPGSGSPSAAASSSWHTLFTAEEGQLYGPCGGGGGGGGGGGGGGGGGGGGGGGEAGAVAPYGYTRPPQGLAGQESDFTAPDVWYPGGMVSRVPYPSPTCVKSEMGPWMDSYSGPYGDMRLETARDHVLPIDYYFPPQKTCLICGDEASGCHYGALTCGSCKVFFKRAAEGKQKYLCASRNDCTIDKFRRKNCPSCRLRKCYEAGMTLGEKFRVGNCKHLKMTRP
Format: cell-based
Protocol: The degradation activity of the compound of the present invention on the androgen receptor splicing variant AR-V7 was analyzed using enzyme-linked immunosorbent assay (ELISA).
The plate was cultured in a 5% CO2 cell incubator at 37° C. for 2 days until the cells adhered to the wall. • 2) The drug was prepared into 10 mM stock solution with dimethylsulfoxide (DMSO). […] The plate was gently shaken and mixed. In addition, negative control wells (only containing culture medium) and positive control wells (only containing cells and DMSO) were set. • 3) After the cells were cultured in an incubator for 48 h, the medium was removed and the cells were rinsed once with ice cold PBS. Then, ice-cold 1× cell lysis buffer was added to each well of the cell culture plate. After the plate was incubated on ice for 15 min, the plate was tapped to mix. • 4) The supernatant of the cell lysate was transferred from the cell culture plate to a […] plate for ELISA. • 5) The newly prepared Capture antibody (green) was mixed with the newly prepared HRP-labeled antibody (red), and then the antibody mixture was added to the above 96-well ELISA plate. • 6) The ELISA plate was sealed with plastic film, and then incubated in a 25° C. incubator for 1 h. • 7) The washing buffer was added to each well, and then TMB substrate was added to each well of the ELISA plate. Subsequently, the plate was cultured in an incubator at 37° C. for 5 min. • 8) 100 μl of stop solution was added to each well of the ELISA plate, and the plate was gently tapped for several seconds. The absorbance was read at 450 nm within 30 min. The data were analyzed by the Dose-response equation in the software GraphPad Prism8, to obtain DC50 and Dmax values.
With `CC(C)(c1ccc(OCCCCCCCCOCCCCNc2ccc3c(c2)C(=O)N(C2CCC(=O)NC2=O)C3=O)cc1)c1ccc(OCc2ccnc(NS(C)(=O)=O)n2)cc1` (stereo not shown) [Example 22, N-(4-((4-(2-(4-((8-(4-((2-(2,6-dioxopiperidin-3-yl)-1,3-dioxoisoindolin-5-yl)amino)butoxy)octyl)oxy)phenyl)propan-2-yl)phenoxy)methyl)pyrimidin-2-yl)methanesulfonamide] the DC50 was 0.101 to 1 µM.
`CC(C)(c1ccc(OCCCCCCCOCCCOCCCNc2cccc3c2C(=O)N(C2CCC(=O)NC2=O)C3=O)cc1)c1ccc(OCc2ccnc(NS(C)(=O)=O)n2)cc1` (stereo not shown) [Example 23] was tested, and the DC50 was 1 to 5 µM.
`CC(=O)Nc1nccc(COc2ccc(C(C)(C)c3ccc(OCCCCCCCCOCCCCNc4ccc5c(c4)C(=O)N(C4CCC(=O)NC4=O)C5=O)cc3)cc2)n1` (stereo not shown) [Example 26, N-(4-((4-(2-(4-((8-(4-((2-(2,6-dioxopiperidin-3-yl)-1,3-dioxoisoindolin-5-yl)amino)butoxy)octyl)oxy)phenyl)propan-2-yl)phenoxy)methyl)pyrimidin-2-yl)acetamide] showed a DC50 of 1 to 5 µM.
For `CC(C)(c1ccc(OCCCCCCCCOCCCCNc2ccc3c(c2)C(=O)N(C2CCC(=O)NC2=O)C3=O)cc1)c1ccc(OCc2cccc(NS(C)(=O)=O)n2)cc1` (stereo not shown) [Example 33, N-(6-((4-(2-(4-((8-(4-((2-(2,6-dioxopiperidin-3-yl)-1,3-dioxoisoindolin-5-yl)amino)butoxy)octyl)oxy)phenyl)propan-2-yl)phenoxy)methyl)pyridin-2-yl)methanesulfonamide], the DC50 was 0.101 to 1 µM.
For `CC(C)(c1ccc(OCCCNc2ccc3c(c2)C(=O)N(C2CCC(=O)NC2=O)C3=O)cc1)c1ccc(OCc2ccnc(NS(C)(=O)=O)n2)cc1` (stereo not shown) [Example 37, N-(4-((4-(2-(4-(3-((2-(2,6-dioxopiperidin-3-yl)-1,3-dioxoisoindolin-5-yl)amino)propoxy)phenyl)propan-2-yl)phenoxy)methyl)pyrimidin-2-yl)methanesulfonamide], the DC50 was 1 to 5 µM.

Same assay, conditions: AR-v7 degradation in 22RV1 cells, 48 h, numeric values
Work on `CC(C)(c1ccc(OCCCCCCCCOCCCCNc2cccc3c2C(=O)N(C2CCC(=O)NC2=O)C3=O)cc1)c1ccc(OCc2ccnc(NS(C)(=O)=O)n2)cc1` (stereo not shown) [Example 21, N-(4-((4-(2-(4-((8-(4-((2-(2,6-dioxopiperidin-3-yl)-1,3-dioxoisoindolin-4-yl)amino)butoxy)octyl)oxy)phenyl)propan-2-yl)phenoxy)methyl)pyrimidin-2-yl)methanesulfonamide] yielded a DC50 of 5.77 µM.
`CC(C)(c1ccc(OCCCCCCCOCCCOCCCNc2ccc3c(c2)C(=O)N(C2CCC(=O)NC2=O)C3=O)cc1)c1ccc(OCc2ccnc(NS(C)(=O)=O)n2)cc1` (stereo not shown) [Example 24] was tested, and the DC50 was greater than 10 µM.
`CN(c1nccc(COc2ccc(C(C)(C)c3ccc(OCCCCCCCCOCCCCNc4ccc5c(c4)C(=O)N(C4CCC(=O)NC4=O)C5=O)cc3)cc2)n1)S(C)(=O)=O` (stereo not shown) [Example 25, N-(4-((4-(2-(4-((8-(4-((2-(2,6-dioxopiperidin-3-yl)-1,3-dioxoisoindolin-5-yl)amino)butoxy)octyl)oxy)phenyl)propan-2-yl)phenoxy)methyl)pyrimidin-2-yl)-N-methyl methanesulfonamide] gave a DC50 greater than 10 µM.
Work on `CC(C)(c1ccc(OCCCCCCCCOCCCCNc2ccc3c(c2)C(=O)N(C2CCC(=O)NC2=O)C3=O)cc1)c1ccc(OCc2ccnc(N3CCCS3(=O)=O)n2)cc1` (stereo not shown) [Example 27, 5-((4-((8-(4-(2-(4-((2-(1,1-dioxoisothiazolidin-2-yl)pyrimidin-4-yl)methoxy)phenyl)propan-2-yl)phenoxy)octyl)oxy)butyl)amino)-2-(2,6-dioxopiperidin-3-yl)isoindolin-1,3-dione] yielded a DC50 of 7.58 µM.
`CC(C)(c1ccc(OCCCCCCCCOCCCCNc2ccc3c(c2)C(=O)N(C2CCC(=O)NC2=O)C3=O)cc1)c1ccc(OCc2ccnc(N)n2)cc1` (stereo not shown) [Example 28, 5-((4-((8-(4-(2-(4-((2-aminopyrimidin-4-yl)methoxy)phenyl)propan-2-yl)phenoxy)octyl)oxy)butyl)amino)-2-(2,6-dioxopiperidin-3-yl)isoindolin-1,3-dione] gave a DC50 of 5.27 µM.
For `CC(C)(c1ccc(OCCCN2CCN(CC3CCN(CCCNc4ccc5c(c4)C(=O)N(C4CCC(=O)NC4=O)C5=O)CC3)CC2)cc1)c1ccc(OCc2ccnc(NS(C)(=O)=O)n2)cc1` (stereo not shown) [Example 29, N-(4-((4-(2-(4-(3-(4-((1-(3-((2-(2,6-dioxopiperidin-3-yl)-1,3-dioxoisoindolin-5-yl)amino)propyl)piperidin-4-yl)methyl)piperazin-1-yl)propoxy)phenyl)propan-2-yl)phenoxy)methyl)pyrimidin-2-yl)methanesulfonamide], the DC50 was 6.33 µM.
`CC(C)(c1ccc(OCCCCCCCCN2CC3(C2)CN(c2ccc4c(c2)C(=O)N(C2CCC(=O)NC2=O)C4=O)C3)cc1)c1ccc(OCc2ccnc(NS(C)(=O)=O)n2)cc1` (stereo not shown) [Example 30, N-(4-((4-(2-(4-((8-(6-(2-(2,6-dioxopiperidin-3-yl)-1,3-dioxoisoindolin-5-yl)-2,6-diazaspiro[3.3]heptan-2-yl)octyl)oxy)phenyl)propan-2-yl)phenoxy)methyl)pyrimidin-2-yl)methanesulfonamide] gave a DC50 greater than 10 µM.
Molecule `CC(C)(c1ccc(OCCCCCCCCOCCCCNc2ccc3c(c2)C(=O)N(C2CCC(=O)NC2=O)C3=O)cc1)c1ccc(OCc2cncc(NS(C)(=O)=O)n2)cc1` (stereo not shown) [Example 31, N-(6-((4-(2-(4-((8-(4-((2-(2,6-dioxopiperidin-3-yl)-1,3-dioxoisoindolin-5-yl)amino)butoxy)octyl)oxy)phenyl)propan-2-yl)phenoxy)methyl)pyrazin-2-yl)methanesulfonamide] has a DC50 greater than 10 µM.
Molecule `CC(C)(c1ccc(OCCCCCCCCOCCCCNc2ccc3c(c2)C(=O)N(C2CCC(=O)NC2=O)C3=O)cc1)c1ccc(OCc2nccc(NS(C)(=O)=O)n2)cc1` (stereo not shown) [Example 32, N-(2-((4-(2-(4-((8-(4-((2-(2,6-dioxopiperidin-3-yl)-1,3-dioxoisoindolin-5-yl)amino)butoxy)octyl)oxy)phenyl)propan-2-yl)phenoxy)methyl)pyrimidin-4-yl)methanesulfonamide] has a DC50 greater than 10 µM.
`CC(C)(c1ccc(OCc2ccnc(NS(C)(=O)=O)n2)cc1)c1ccc(OC2CCN(c3ccc4c(c3)C(=O)N(C3CCC(=O)NC3=O)C4=O)CC2)cc1` (stereo not shown) [Example 34, N-(4-((4-(2-(4-((1-(2-(2,6-dioxopiperidin-3-yl)-1,3-dioxoisoindolin-yl)piperidin-4-yl)oxy)phenyl)propan-2-yl)phenoxy)methyl)pyrimidin-2-yl)methanesulfonamide] showed a DC50 greater than 10 µM.
In the case of `CC(C)(c1ccc(OCc2ccnc(NS(C)(=O)=O)n2)cc1)c1ccc(OC2CCN(c3cccc4c3C(=O)N(C3CCC(=O)NC3=O)C4=O)CC2)cc1` (stereo not shown) [Example 35, N-(4-((4-(2-(4-((1-(2-(2,6-dioxopiperidin-3-yl)-1,3-dioxoisoindolin-4-yl)piperidin-4-yl)oxy)phenyl)propan-2-yl)phenoxy)methyl)pyrimidin-2-yl)methanesulfonamide], the DC50 is reported as greater than 10 µM.
With `CC(C)(c1ccc(OCc2ccnc(NS(C)(=O)=O)n2)cc1)c1ccc(OC2CCN(CCCCOCCCCNc3ccc4c(c3)C(=O)N(C3CCC(=O)NC3=O)C4=O)CC2)cc1` (stereo not shown) [Example 36, N-(4-((4-(2-(4-((1-(4-(4-(4-)((2-(2,6-dioxopiperidin-3-yl)-1,3-dioxoisoindolin-5-yl)amino)butoxy)butyl)piperidin-4-yl)oxy)phenyl)propan-2-yl)phenoxy)methyl)pyrimidin-2-yl)methanesulfonamide] the DC50 was greater than 10 µM.
Molecule `CC(C)(c1ccc(OCCCCCNc2ccc3c(c2)C(=O)N(C2CCC(=O)NC2=O)C3=O)cc1)c1ccc(OCc2ccnc(NS(C)(=O)=O)n2)cc1` (stereo not shown) [Example 38, N-(4-((4-(2-(4-((5-((2-(2,6-dioxopiperidin-3-yl)-1,3-dioxoisoindolin-5-yl)amino)pentyl)oxy)phenyl)propan-2-yl)phenoxy)methyl)pyrimidin-2-yl)methanesulfonamide] has a DC50 greater than 5 µM.
`CC(C)(c1ccc(OCc2ccnc(NS(C)(=O)=O)n2)cc1)c1ccc(OC[C@H]2CC[C@H](CN3CCC(CN4CCC5(CC4)CN(c4ccc6c(c4)C(=O)N(C4CCC(=O)NC4=O)C6=O)C5)CC3)CC2)cc1` (stereo partly shown) [Example 39] showed a DC50 greater than 10 µM.
